Laboratory results reported in patent US20180296532A1, “RNA-Focused Small Molecules for Inhibiting RNA Toxicity in Myotonic Dystrophy” (The Scripps Research Institute, priority 2015, published 2018).

Columns and labels:
[1] = test system: C2C12 cell line expressing firefly luciferase mRNA with r(CUG)800 in the 3′ UTR; assay: Luciferase reporter assay for DM1 translational defects in C2C12 cells; assay type: cell-based
Excerpt: Exemplary Formula (I) compound 2GN8 was studied for improving translational defects associated with DM1 (due to poor nucleocytoplasmic transport of r(CUG)^exp containing transcripts).^(30, 52, 53) In particular, a cellular model system was employed in which the C2C12 cell line stably expresses r(CUG)800 embedded in the 3′ UTR of firefly luciferase.^(54) Similar to DMPK mRNA in DM1-affected cells, the expanded repeat impairs nucleocytoplasmic transport of luciferase mRNA and thus decreases luciferase expression. Compounds that bind r(CUG)^exp and disrupt the r(CUG)^exp-MBNL1 complex may stimulate cytoplasmic transport of the luciferase mRNA and thus translation of luciferase (FIG. 9A).
C2C12 cell lines expressing 800 or 0 CTG repeats in the 3′ UTR of luciferase were grown as monolayers in 96-well plates in growth medium (1×DMEM, 10% FBS, 1× glutagro, (Corning) and 1× antibiotic/antimycotic (Corning))(66). Once the cells were 80% confluent, 2GN8 (300, 200 and 100 μM) was added in 100 μL of growth medium. Cells were treated for 48 h and then the cell count was normalized using WST-1 reagent (Roche). Then cells were washed with 1×DPBS and lysed by treating with 50 μL of PPBT lysis buffer at room temperature for 10 minutes. Then 50 μL of luciferase substrate was added and luminescence was measured.

HSA^LR mice = assay: Pre-mRNA splicing defects in HSA^LR mouse model of DM1; assay type: in vivo; conditions: 40 mg/kg/day intraperitoneally for 18 days
Excerpt: A mouse model of DM1 has been reported in which 250 rCUG repeats are expressed using an actin promoter (human skeletal actin long repeat, HSA^LR).^24 The presence of these repeats results in dysregulation of alternative splicing in the muscle-specific chloride ion channel (Clcn1) and the sarcoplasmic/endoplasmic reticulum calcium ATPase 1 (Serca1/Atp2a1) pre-mRNAs. Clcn1 exon 7a is excluded ˜100% in mRNA from normal adult mice: DM1 mice have an exclusion rate of ˜50% (FIG. 12A).
All experimental procedures, mouse handling, and husbandry were completed in accordance with the Association for Assessment and Accreditation of Laboratory Animal Care. A mouse model for DM1(67). HSALR in line 20b, was used. HSALR mice express human skeletal actin RNA with 250 CUG repeats in the 3′ UTR. Age- and gender-matched HSALR mice were injected intraperitoneally with either 40 mg/kg 2GN8 in water for treatment and 0.9% NaCl for control once per day for 18 days. Mice were sacrificed one day after the last injection, and the vastus muscle was obtained. RNA was extracted from the vastus tissue, and cDNA was synthesized as previously described.

[2] = test system: r(CUG)^exp-containing nuclear foci; assay: Nuclear foci by fluorescence in situ hybridization (FISH) in DM1 patient derived fibroblasts; assay type: cell-based; conditions: 300 and 200 μM, 48 h; untreated cells ˜5
Excerpt: Bioactivity of 2GN8 was further assessed in DM1 patient derived fibroblasts for the disruption of nuclear foci. As observed in other microsatellite disorders, the binding of various proteins to r(CUG)^exp causes formation of nuclear foci.^(55) Fluorescence in situ hybridization (FISH) with a dye-labeled oligonucleotide was used to determine if 2GN8 disrupts r(CUG)^exp-containing nuclear foci. In untreated cells, the average number of foci per cell is ˜5. Treatment with 2GN8 reduces the average number of foci per cell to less than 1 at 300 and 200 μM (FIG. 11).
FISH was utilized to determine the effects of 2GN8 on the formation and disruption of nuclear foci. DM1 patient derived fibroblasts containing 500 CTG repeats (GM03987) were grown to ˜80% confluence in a Mat-Tek 96-well glass bottom plate in growth medium. Cells were treated with 2GN8 (300, 200 and 100 μM) for 48 h in growth medium followed by FISH as previously described(63) using 1 ng/μL DY547-2′OMe-(CAG)6. Immunostaining of MBNL1 was completed as previously described(65) using the MB1a antibody (diluted 1:4), which was generously supplied by Prof. […]

N=C(N)Nc1ccc2nc(-c3ccc(-c4nc5ccc(NC(=N)N)cc5[nH]4)cc3)[nH]c2c1 [Compound 2GN8]
luciferase activity in cells without r(CUG)800 ([1]; C2C12 cells expressing firefly luciferase mRNA without r(CUG)800): does not affect luciferase activity | luciferase activity (improvement of translational defect) ([1]; C2C12 cells with r(CUG)800, 300 and 200 μM, 48 h): significant increase | Clcn1 pre-mRNA splicing defects (HSA^LR mice): improved to nearly wild type levels | Serca1 pre-mRNA splicing defects (HSA^LR mice): improved to nearly wild type levels | average number of foci per cell [2]: less than 1
